Measured values as given in patent US6489098B1, “Means and methods for monitoring nucleoside reverse transcriptase inhibitor antiretroviral therapy and guiding therapeutic decisions in the treatment of HIV/AIDS” (ViroLogic, Inc., priority 1998, dated 2002).

Legend:
[1] = tested on: HIV-1 RT mutant resistance test vector A62V-T69SSA-T215Y-RTV; experiment: Phenotypic susceptibility assay, site directed RTV A62V-T69SSA-T215Y; format: cell-based; conditions: RTV with 62 + 69 + 215 (A62V, T69SSA, T215Y); 1 replicate
Method: (§1) Resistance tests were carried out with resistance test vectors using two host cell types. Resistance test vector viral particles were produced by a first host cell (the resistance test vector host cell) that was prepared by transfecting a packaging host cell with the resistance test vector and the packaging expression vector. The resistance test vector viral particles were then used to infect a second host cell (the target host cell) in which the expression of the indicator gene is measured.
(§2) The resistance test vectors containing a functional luciferase gene cassette were constructed and host cells were transfected with the resistance test vector DNA. […] The IC50 values were determined by plotting percent drug inhibition vs. log 10 drug concentration.
(§3) Host cells were seeded in 10-cm-diameter dishes and were transfected several days after plating with resistance test vector plasmid DNA and the envelope expression vector. […] HIV capsid protein (p24) levels in the harvested cell culture media were determined by an EIA method as described by the manufacturer (SIAC; Frederick, Md.). […] The inhibitory effect of the drug was determined using the following equation: […]

[2] = tested on: HIV-1 RT mutant resistance test vector A62V-T69SSA-L74V-RTV; experiment: Phenotypic susceptibility assay, site directed RTV A62V-T69SSA-L74V; format: cell-based; conditions: RTV with 62 + 69 + 74V; 1 replicate
Method: as §1
(§4) The resistance test vectors containing a functional luciferase gene cassette were constructed and host cells were transfected with the resistance test vector DNA. The resistant test vectors contained patient-derived reverse transcriptase and protease sequences that were either susceptible or resistant to the antiretroviral agents, such as nucleoside reverse transcriptase inhibitors, non-nucleoside reverse transcriptase inhibitors and protease inhibitors. The resistance test vector viral particles produced by transfecting the resistance test vector DNA into host cells, either in the presence or absence of protease inhibitors, were used to infect target host cells grown either in the absence of NRTI or NNRTI or In the presence of increasing concentrations of the drug. The amount of luciferase activIty produced in infected target host cells in the presence of drug was compared to the amount of luciferase produced in infected target host cells in the absence of drug. Drug resistance was measured as the amount of drug required to inhibit by 50% the luciferase activity detected in the absence of drug (Inhibitory concentration 50%, IC50). The IC50 values were determined by plotting percent drug inhibition vs. log 10 drug concentration.
(§5) Host cells were seeded in 10-cm-diameter dishes and were transfected several days after plating with resistance test vector plasmid DNA and the envelope expression vector. Transfections were performed using a calcium-phosphate precipitation procedure. The cell culture media containing the DNA precipitate was replaced with fresh medium, from one to 24 hours, after transfection. Cell culture media containing resistance test vector viral particles was harvested one to four days after transfection and was passed through a […] filter before being stored at −80° C. HIV capsid protein (p24) levels in the harvested cell culture media were determined by an EIA method as described by the manufacturer (SIAC; Frederick, Md.). Before infection, target cells (293 and 293/T) were plated in cell culture media. Control infections were performed using cell culture media from mock transfections (no DNA) or transfections containing the resistance test vector plasmid DNA without the envelope expression plasmid. One to three or more days after infectIon the media was removed and cell lysis buffer (Promega) was added to each well. […] The inhibitory effect of the drug was determined using the following equation:
(§6) % luciferase inhibition=1−(RLUluc[drug]÷RLUluc)×100
where RLUluc [drug] is the relative light unit of luciferase activity in infected cells in the presence of drug and RLUluc is the Relative Light Unit of luciferase activity in infected cells in the absence of drug. IC50 values were obtained from the sigmoidal curves that were generated from the data by plotting the percent inhibition of luciferase activity vs. the log 10 drug concentration. […]

[3] = tested on: HIV-1 RT mutant resistance test vector M41L-T69SSA-T215Y-RTV; experiment: Phenotypic susceptibility assay, site directed RTV M41L+T69SSA+T215Y; format: cell-based; conditions: for effect on susceptibility (words): RTV with M41L+T69SSA+T215Y
Method: as §1, §4
(§7) Host cells were seeded in 10-cm-diameter dishes and were transfected several days after plating with resistance test vector plasmid DNA and the envelope expression vector. Transfections were performed using a calcium-phosphate precipitation procedure. The cell culture media containing the DNA precipitate was replaced with fresh medium, from one to 24 hours, after transfection. Cell culture media containing resistance test vector viral particles was harvested one to four days after transfection and was passed through a […] filter before being stored at −80° C. HIV capsid protein (p24) levels in the harvested cell culture media were determined by an EIA method as described by the manufacturer (SIAC; Frederick, Md.). Before infection, target cells (293 and 293/T) were plated in cell culture media. Control infections were performed using cell culture media from mock transfections (no DNA) or transfections containing the resistance test vector plasmid DNA without the envelope expression plasmid. One to three or more days after infectIon the media was removed and cell lysis buffer (Promega) was added to each well. Cell lysates were assayed for luciferase activity (FIG. 3). The inhibitory effect of the drug was determined using the following equation:
as §6
(§8) where RLUluc [drug] is the relative light unit of luciferase activity in infected cells in the presence of drug and RLUluc is the Relative Light Unit of luciferase activity in infected cells in the absence of drug. IC50 values were obtained from the sigmoidal curves that were generated from the data by plotting the percent inhibition of luciferase activity vs. the log 10 drug concentration. The drug inhibition curves are shown in (FIG. 3).
(§9) Genotypic changes that are observed to correlate with changes in phenotypic patterns of drug susceptibility are evaluated by construction of resistance test vectors containing the specific mutation on a defined, wild-type (drug susceptible) genetic background. Mutations may be incorporated alone and/or in combination with other known drug resistance mutations that are thought to modulate the susceptibility of HIV to a certain drug or class of drugs. […]

[4] = tested on: HIV-1 RT mutant resistance test vector M41L-A62V-T69SSA-T215Y-RTV; experiment: Phenotypic susceptibility assay, site directed RTV M41L+A62V+T69SSA+T215Y; format: cell-based; conditions: RTV with 41 + 62 + 69 + 215; 3 replicates
Method: as §1, §4, §5, §6
where RLUluc [drug] is the relative light unit of luciferase activity in infected cells in the presence of drug and RLUluc is the Relative Light Unit of luciferase activity in infected cells in the absence of drug. IC50 values were obtained from the sigmoidal curves that were generated from the data by plotting the percent inhibition of luciferase activity vs. the log 10 drug concentration.
Mutations may be incorporated alone and/or in combination with other known drug resistance mutations that are thought to modulate the susceptibility of HIV to a certain drug or class of drugs. Mutations are introduced into the resistance test vector through any of the widely known methods for site-directed mutagenesis. In one embodiment of this invention the mega-primer PCR method for site-directed mutagenesis is used.

[5] = tested on: HIV-1 RT mutant resistance test vector M41L-T69SSA-T215Y-L210W-RTV; experiment: Phenotypic susceptibility assay, site directed RTV M41L+T69SSA+L210W+T215Y; format: cell-based; conditions: RTV with 41 + 69 + 210 + 215; 3 replicates
Method: as §1
as §4, with “Drug resistance was measured as the amount of drug required to inhibit by 50% the luciferase activity detected in the absence of drug (Inhibitory concentration 50%, IC50).” left out
as §3

[6] = tested on: HIV-1 RT mutant resistance test vector M41L-T69SSA-T215Y-L210W-V75M-RTV; experiment: Phenotypic susceptibility assay, site directed RTV M41L+T69SSA+V75M+L210W+T215Y; format: cell-based; conditions: RTV with 41 + 69 + 75M + 210 + 215; 1 replicate
Method: as §1, §2, §3

[7] = tested on: HIV-1 RT mutant resistance test vector M41L-A62V-T69SSA-T215Y-L210W-RTV; experiment: Phenotypic susceptibility assay, site directed RTV M41L+A62V+T69SSA+L210W+T215Y; format: cell-based; conditions: RTV with 41 + 62 + 69 + 210 + 215; 3 replicates
Method: as §1
as §4, with “Drug resistance was measured as the amount of drug required to inhibit by 50% the luciferase activity detected in the absence of drug (Inhibitory concentration 50%, IC50).” left out
as §3

[8] = tested on: HIV-1 RT mutant resistance test vector A62V; experiment: Phenotypic susceptibility assay, site directed RTV A62V; format: cell-based; conditions: RTV with A62V vs wild type RTV; 3 replicates
Method: as §1, §4, §7, §6, §8, §9

[9] = tested on: HIV-1 RT mutant resistance test vector T69SSA; experiment: Phenotypic susceptibility assay, site directed RTV T69SSA; format: cell-based; conditions: RTV with T69SSA vs wild type RTV; 3 replicates
Method: as §1, §4, §7, §6, §8, §9

[10] = tested on: HIV-1 RT mutant resistance test vector A62V+T69SSA; experiment: Phenotypic susceptibility assay, site directed RTV A62V+T69SSA; format: cell-based; conditions: RTV with 62 + 69 (A62V+T69SSA); 4 replicates
Method: as §1, §4, §7, §6, §8, §9

[11] = tested on: HIV-1 RT mutant resistance test vector A62V+T69SSA+V75I; experiment: Phenotypic susceptibility assay, site directed RTV A62V+T69SSA+V75I; format: cell-based; conditions: RTV with 62 + 69 + 751 (A62V, T69SSA, V75I); 1 replicate
Method: as §1, §4, §7, §6, §8, §9

[12] = tested on: HIV-1 RT mutant resistance test vector 41 + 215 (M41L and T215Y); experiment: Phenotypic susceptibility assay, site directed RTV 41 + 215; format: cell-based; conditions: RTV with 41 + 215; 4 replicates
Method: as §1, §4, §7, §6, §8, §9

[13] = tested on: HIV-1 RT mutant resistance test vector 41 + 210 + 215; experiment: Phenotypic susceptibility assay, site directed RTV 41 + 210 + 215; format: cell-based; conditions: RTV with 41 + 210 + 215; 3 replicates
Method: as §1, §4, §7, §6, §8, §9

[14] = tested on: HIV-1 RT mutant resistance test vector 41 + 62 + 69 + 75M + 210 + 215; experiment: Phenotypic susceptibility assay, site directed RTV 41 + 62 + 69 + 75M + 210 + 215; format: cell-based; conditions: RTV with 41 + 62 + 69 + 75M + 210 + 215; 1 replicate
Method: as §1, §4, §7, §6, §8, §9

[15] = tested on: HIV-1 RT mutant resistance test vector 41 + 62 + 69 + 75S + 210 + 215; experiment: Phenotypic susceptibility assay, site directed RTV 41 + 62 + 69 + 75S + 210 + 215; format: cell-based; conditions: RTV with 41 + 62 + 69 + 75S + 210 + 215; 1 replicate
Method: as §1, §4, §7, §6, §8, §9

[16] = tested on: HIV-1 RT mutant resistance test vector 41 + 184 + 215; experiment: Phenotypic susceptibility assay, site directed RTV 41 + 184 + 215; format: cell-based; conditions: RTV with 41 + 184 + 215; 3 replicates
Method: as §1, §4, §7, §6, §8, §9

[17] = tested on: HIV-1 RT mutant resistance test vector 41 + 69 + 184 + 215; experiment: Phenotypic susceptibility assay, site directed RTV 41 + 69 + 184 + 215; format: cell-based; conditions: RTV with 41 + 69 + 184 + 215; 2 replicates
Method: as §1, §4, §7, §6, §8, §9

[18] = tested on: HIV-1 RT mutant resistance test vector M41L+A62V+T69SSA+M184V+T215Y; experiment: Phenotypic susceptibility assay, site directed RTV M41L+A62V+T69SSA+M184V+T215Y; format: cell-based; conditions: RTV with 41 + 62 + 69 + 184 + 215; 2 replicates
Method: as §1, §4, §7, §6, §8, §9

[19] = tested on: HIV with RT Lys65→Arg mutation; conditions: Lys65→Arg (K65R); cited from earlier work
[20] = tested on: HIV with RT K70E mutation; conditions: in vitro selection; cited from earlier work
[21] = tested on: AZT-resistant, 3TC-resistant and multi-drug resistant viruses; conditions: cited from earlier work
[22] = tested on: ZDV-resistant HIV isolates; conditions: cited from earlier work

Cc1ccnc2c1NC(=O)c1cccnc1N2C1CC1 [NEV, nevirapine]
Average fold reduction in susceptibility [1]: 0.6 fold
Average fold reduction in susceptibility [2]: 0.3 fold
effect on susceptibility (words) [3]: slight increase in susceptibility to DEL and NEV
Average fold reduction in susceptibility [4]: 0.8 fold
Average fold reduction in susceptibility [5]: 0.42 fold
Average fold reduction in susceptibility [6]: 0.5 fold
Average fold reduction in susceptibility [7]: 0.6 fold

Nc1ccn([C@@H]2CS[C@H](CO)O2)c(=O)n1 [3TC, lamivudine]
Average fold reduction in susceptibility [8]: 0.54 fold
Average fold reduction in susceptibility [9]: 3.20 fold
Average fold reduction in susceptibility [10]: 2.89 fold
Average fold reduction in susceptibility [11]: 4.08 fold
Average fold reduction in susceptibility [12]: 1.89 fold
Average fold reduction in susceptibility [13]: 2.14 fold
Average fold reduction in susceptibility ([3]; RTV with 41 + 69 + 215 (M41L, T69SSA, T215Y), 2 replicates): 6.27 fold
Average fold reduction in susceptibility [14]: 18.41 fold
Average fold reduction in susceptibility [15]: 31.67 fold
Average fold reduction in susceptibility [16]: >110 fold
Average fold reduction in susceptibility [17]: >110 fold
Average fold reduction in susceptibility [18]: >110 fold

Nc1ncnc2c1ncn2CCOCP(=O)(O)O [adefovir]
fold increase in IC50 / reduction in susceptibility [19]: 16 fold
fold reduction in susceptibility [20]: 9 fold
sensitivity of resistant viruses [21]: remain sensitive to adefovir

[N-]=[N+]=N[C@H]1C[C@H](n2ccc(=O)[nH]c2=O)O[C@@H]1CO [AZU, 3′-azido-2′,3′-dideoxyuridine]
cross-resistance of ZDV-resistant strains [22]: cross-resistance

CC(C)Nc1cccnc1N1CCN(C(=O)c2cc3cc(NS(C)(=O)=O)ccc3[nH]2)CC1 [DEL, delavirdine]
Average fold reduction in susceptibility [1]: 0.3 fold
Average fold reduction in susceptibility [2]: 0.4 fold
effect on susceptibility (words) [3]: slight increase in susceptibility to DEL and NEV
Average fold reduction in susceptibility [4]: 0.2 fold
Average fold reduction in susceptibility [5]: 0.13 fold
Average fold reduction in susceptibility [6]: 0.25 fold
Average fold reduction in susceptibility [7]: 0.2 fold
